Measurements taken from paper PMC7366380, “Discovery of a Potent and Selective Covalent Inhibitor and Activity-Based Probe for the Deubiquitylating Enzyme UCHL1, with Antifibrotic Activity” (Journal of the American Chemical Society, 2020).
“And” between values parts separate entries of the source, which are not always exact repeats. Identical values can stand only once.

Assays:
Assay in all cases: In-cell proteome-wide competitive ABPP, HEK293: other DUBs and proteins
[1] = molecular target: T1, DUBs and other proteins in HEK293 cells (Homo sapiens, UniProt P51665); settings: replicates A-C; for Log2 reporter intensity values: PSMD7: competition with ABP 2, DMSO substract (FC); for Log2 reporter intensity values: PSMD7, DMSO subtracted
T1 sequence (P51665 1-324): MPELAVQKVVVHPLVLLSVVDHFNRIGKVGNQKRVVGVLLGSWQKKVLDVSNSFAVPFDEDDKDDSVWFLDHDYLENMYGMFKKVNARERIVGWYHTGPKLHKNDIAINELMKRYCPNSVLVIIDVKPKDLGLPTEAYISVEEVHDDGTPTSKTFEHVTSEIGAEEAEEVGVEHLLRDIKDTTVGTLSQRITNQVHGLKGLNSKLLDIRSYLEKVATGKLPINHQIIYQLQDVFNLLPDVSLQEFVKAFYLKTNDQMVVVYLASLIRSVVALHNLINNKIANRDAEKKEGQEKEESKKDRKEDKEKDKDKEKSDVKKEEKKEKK

[2] = molecular target: DUBs and other proteins in HEK293 cells (Homo sapiens, UniProt Q14694); settings: replicates A-C; for Log2 reporter intensity values: USP10: competition with ABP 2, DMSO substract (FC); for Log2 reporter intensity values: USP10, DMSO subtracted
[3] = molecular target: DUBs and other proteins in HEK293 cells (Homo sapiens, UniProt Q96FW1); settings: replicates A-C; for Log2 reporter intensity values: OTUB1: competition with ABP 2, DMSO substract (FC); for Log2 reporter intensity values: OTUB1, DMSO subtracted
[4] = molecular target: DUBs and other proteins in HEK293 cells (Homo sapiens, UniProt O00487); settings: replicates A-C; for Log2 reporter intensity values: PSMD14: competition with ABP 2, DMSO substract (FC); for Log2 reporter intensity values: PSMD14, DMSO subtracted
[5] = molecular target: T2, DUBs and other proteins in HEK293 cells (Homo sapiens, UniProt Q9Y4E8); settings: replicates A-C; for Log2 reporter intensity values: USP15: competition with ABP 2, DMSO substract (FC); for Log2 reporter intensity values: USP15, DMSO subtracted
T2 sequence (Q9Y4E8 1-981): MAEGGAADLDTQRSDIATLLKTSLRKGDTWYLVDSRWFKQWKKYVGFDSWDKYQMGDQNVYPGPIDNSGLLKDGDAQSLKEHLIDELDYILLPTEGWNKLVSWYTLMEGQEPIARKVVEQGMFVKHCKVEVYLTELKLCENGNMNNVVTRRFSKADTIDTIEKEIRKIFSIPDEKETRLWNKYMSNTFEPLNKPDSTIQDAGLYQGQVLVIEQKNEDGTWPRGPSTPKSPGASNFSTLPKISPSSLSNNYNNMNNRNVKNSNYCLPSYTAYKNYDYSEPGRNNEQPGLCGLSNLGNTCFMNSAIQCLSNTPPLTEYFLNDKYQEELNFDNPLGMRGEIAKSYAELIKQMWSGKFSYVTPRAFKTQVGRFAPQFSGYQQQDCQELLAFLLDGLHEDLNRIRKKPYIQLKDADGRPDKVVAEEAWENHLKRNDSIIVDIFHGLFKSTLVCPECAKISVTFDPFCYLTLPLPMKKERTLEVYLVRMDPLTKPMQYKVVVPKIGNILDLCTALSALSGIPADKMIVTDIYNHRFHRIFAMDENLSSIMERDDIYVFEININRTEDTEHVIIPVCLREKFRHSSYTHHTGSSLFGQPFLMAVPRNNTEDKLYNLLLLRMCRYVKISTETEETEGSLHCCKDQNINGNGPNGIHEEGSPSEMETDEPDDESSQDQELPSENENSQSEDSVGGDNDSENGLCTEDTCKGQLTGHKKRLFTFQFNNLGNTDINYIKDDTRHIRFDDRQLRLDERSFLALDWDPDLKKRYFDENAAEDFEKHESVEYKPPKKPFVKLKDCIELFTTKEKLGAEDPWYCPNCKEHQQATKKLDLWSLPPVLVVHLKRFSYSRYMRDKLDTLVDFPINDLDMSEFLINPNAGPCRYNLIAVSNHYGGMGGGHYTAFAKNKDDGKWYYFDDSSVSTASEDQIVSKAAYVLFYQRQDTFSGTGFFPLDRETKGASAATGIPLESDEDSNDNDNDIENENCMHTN

[6] = molecular target: T3, DUBs and other proteins in HEK293 cells (Homo sapiens, UniProt Q9Y5K5); settings: replicates A-C; for Log2 reporter intensity values: UCHL5: competition with ABP 2, DMSO substract (FC); for Log2 reporter intensity values: UCHL5, DMSO subtracted
T3 sequence (Q9Y5K5 1-329): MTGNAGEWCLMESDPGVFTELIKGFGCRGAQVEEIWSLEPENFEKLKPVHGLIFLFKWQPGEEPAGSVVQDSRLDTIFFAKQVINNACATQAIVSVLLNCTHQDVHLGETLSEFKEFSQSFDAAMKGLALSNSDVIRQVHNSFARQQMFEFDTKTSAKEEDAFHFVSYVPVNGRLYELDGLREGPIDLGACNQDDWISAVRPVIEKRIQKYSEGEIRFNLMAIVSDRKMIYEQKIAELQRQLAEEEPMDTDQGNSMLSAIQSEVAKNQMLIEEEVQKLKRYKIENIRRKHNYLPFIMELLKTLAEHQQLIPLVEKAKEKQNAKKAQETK

[7] = molecular target: DUBs and other proteins in HEK293 cells (Homo sapiens, UniProt Q6P2Q9); settings: replicates A-C; for Log2 reporter intensity values: PRPF8: competition with ABP 2, DMSO substract (FC); for Log2 reporter intensity values: PRPF8, DMSO subtracted
[8] = molecular target: DUBs and other proteins in HEK293 cells (Homo sapiens, UniProt Q7L5N1); settings: for Log2 reporter intensity values, COPS6: TMT replicates; for Log2 reporter intensity values / Log2 reporter intensity values: COPS6: replicates A-C; for Log2 reporter intensity values: COPS6: competition with ABP 2, DMSO substract (FC)
Chain of DUBs and other proteins in HEK293 cells (Homo sapiens, UniProt Q7L5N1) (Q7L5N1 whole entry): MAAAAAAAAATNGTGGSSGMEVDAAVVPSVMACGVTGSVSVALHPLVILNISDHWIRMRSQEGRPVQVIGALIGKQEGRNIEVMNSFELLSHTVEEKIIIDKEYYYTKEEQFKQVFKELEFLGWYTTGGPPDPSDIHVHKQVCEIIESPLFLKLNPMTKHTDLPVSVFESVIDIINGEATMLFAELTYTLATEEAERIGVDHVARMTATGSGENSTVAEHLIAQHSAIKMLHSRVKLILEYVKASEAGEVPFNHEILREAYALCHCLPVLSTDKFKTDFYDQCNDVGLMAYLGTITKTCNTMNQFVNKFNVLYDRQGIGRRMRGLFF

Chain of DUBs and other proteins in HEK293 cells (Homo sapiens, UniProt Q14694) (Q14694 whole entry): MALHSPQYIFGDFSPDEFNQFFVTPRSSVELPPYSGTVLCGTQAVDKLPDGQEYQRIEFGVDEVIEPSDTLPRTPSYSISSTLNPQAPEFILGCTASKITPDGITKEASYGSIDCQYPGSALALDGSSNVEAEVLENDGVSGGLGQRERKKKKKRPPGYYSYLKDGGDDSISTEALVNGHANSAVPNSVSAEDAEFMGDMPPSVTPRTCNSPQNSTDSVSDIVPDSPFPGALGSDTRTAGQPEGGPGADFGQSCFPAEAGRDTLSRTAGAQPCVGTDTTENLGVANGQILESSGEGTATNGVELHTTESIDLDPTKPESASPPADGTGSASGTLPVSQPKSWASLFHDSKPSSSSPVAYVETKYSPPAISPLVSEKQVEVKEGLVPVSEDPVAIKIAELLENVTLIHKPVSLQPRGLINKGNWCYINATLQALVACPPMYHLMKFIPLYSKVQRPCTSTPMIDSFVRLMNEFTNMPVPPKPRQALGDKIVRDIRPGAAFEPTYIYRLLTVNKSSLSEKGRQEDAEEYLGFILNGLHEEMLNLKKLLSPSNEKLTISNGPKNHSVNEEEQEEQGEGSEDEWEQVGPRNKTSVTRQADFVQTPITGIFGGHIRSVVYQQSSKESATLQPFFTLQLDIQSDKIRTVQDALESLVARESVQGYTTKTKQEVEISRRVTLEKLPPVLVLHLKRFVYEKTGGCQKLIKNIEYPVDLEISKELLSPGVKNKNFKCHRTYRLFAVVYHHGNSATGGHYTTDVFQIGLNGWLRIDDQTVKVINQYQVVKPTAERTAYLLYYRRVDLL
Chain of DUBs and other proteins in HEK293 cells (Homo sapiens, UniProt Q96FW1) (Q96FW1 whole entry): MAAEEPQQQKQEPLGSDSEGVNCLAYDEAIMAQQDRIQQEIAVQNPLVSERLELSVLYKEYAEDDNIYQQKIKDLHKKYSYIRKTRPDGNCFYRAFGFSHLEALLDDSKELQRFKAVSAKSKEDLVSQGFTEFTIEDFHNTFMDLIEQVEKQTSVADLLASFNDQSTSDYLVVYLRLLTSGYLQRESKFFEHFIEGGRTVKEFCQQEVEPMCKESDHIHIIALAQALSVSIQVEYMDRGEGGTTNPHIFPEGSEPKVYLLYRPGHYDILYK
Chain of DUBs and other proteins in HEK293 cells (Homo sapiens, UniProt O00487) (O00487 whole entry): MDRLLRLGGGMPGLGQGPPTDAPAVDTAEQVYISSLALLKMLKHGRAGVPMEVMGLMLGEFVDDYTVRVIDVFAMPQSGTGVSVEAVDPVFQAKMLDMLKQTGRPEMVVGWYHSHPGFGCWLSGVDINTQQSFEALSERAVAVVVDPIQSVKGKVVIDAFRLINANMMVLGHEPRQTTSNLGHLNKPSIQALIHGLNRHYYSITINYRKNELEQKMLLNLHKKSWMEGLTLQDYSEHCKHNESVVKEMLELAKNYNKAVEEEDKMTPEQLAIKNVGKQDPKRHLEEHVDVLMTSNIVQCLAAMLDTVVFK

SMILES: CC(=O)O/N=C1\C(=O)N(Cc2cc(Cl)ccc2Cl)c2ccc(Cl)cc21 [LDN]
- Log2 reporter intensity values: PSMD7 ([1]; LDN at 5 μM): 1.218 and 1.097 and 1.111
- Log2 reporter intensity values: PSMD7 ([1]; LDN at 25 μM): 1.26 and 1.205 and 1.158
- Log2 reporter intensity values ([1]; LDN at 5 μM): 0.2849 and 0.1342 and 0.1516
- Log2 reporter intensity values ([1]; LDN at 25 μM): 0.3338 and 0.2689 and 0.2118
- Log2 reporter intensity values ([1]; LDN_5 μM): 0.2157 and 0.09493 and 0.1083
- Log2 reporter intensity values ([1]; LDN_25 μM): 0.2577 and 0.2023 and 0.1556
- Log2 reporter intensity values: USP10 ([2]; LDN at 5 μM): 0.9581 and 0.8382 and 0.9082
- Log2 reporter intensity values: USP10 ([2]; LDN at 25 μM): 0.9726 and 0.903 and 0.8841
- Log2 reporter intensity values ([2]; LDN at 5 μM): -0.06168 and -0.2546 and -0.1389
- Log2 reporter intensity values ([2]; LDN at 25 μM): -0.04009 and -0.1472 and -0.1778
- Log2 reporter intensity values ([2]; LDN_5 μM): -0.04282 and -0.1627 and -0.09278
- Log2 reporter intensity values ([2]; LDN_25 μM): -0.02837 and -0.09796 and -0.1169
- Log2 reporter intensity values: OTUB1 ([3]; LDN at 5 μM): 1.034 and 1.042 and 1.019
- Log2 reporter intensity values: OTUB1 ([3]; LDN at 25 μM): 1.066 and 0.9796 and 1.019
- Log2 reporter intensity values ([3]; LDN at 5 μM): 0.04805 and 0.05934 and 0.02777
- Log2 reporter intensity values ([3]; LDN at 25 μM): 0.09269 and -0.02973 and 0.02677
- Log2 reporter intensity values ([3]; LDN_5 μM): 0.03375 and 0.04187 and 0.01932
- Log2 reporter intensity values ([3]; LDN_25 μM): 0.06623 and -0.02052 and 0.01861
- Log2 reporter intensity values: PSMD14 ([4]; LDN at 5 μM): 1.1 and 1.114 and 0.9966
- Log2 reporter intensity values: PSMD14 ([4]; LDN at 25 μM): 0.9804 and 1.072 and 1.068
- Log2 reporter intensity values ([4]; LDN at 5 μM): 0.1369 and 0.1555 and -0.004904
- Log2 reporter intensity values ([4]; LDN at 25 μM): -0.02853 and 0.1005 and 0.09452
- Log2 reporter intensity values ([4]; LDN_5 μM): 0.09685 and 0.1112 and -0.006053
- Log2 reporter intensity values ([4]; LDN_25 μM): -0.02224 and 0.06945 and 0.06505
- Log2 reporter intensity values: USP15 ([5]; LDN at 5 μM): 1.005 and 0.9596 and 1.069
- Log2 reporter intensity values: USP15 ([5]; LDN at 25 μM): 1.047 and 0.9593 and 0.9363
- Log2 reporter intensity values ([5]; LDN at 5 μM): 0.007561 and -0.05945 and 0.09653
- Log2 reporter intensity values ([5]; LDN at 25 μM): 0.06615 and -0.06 and -0.09494
- Log2 reporter intensity values ([5]; LDN_5 μM): 0.004993 and -0.04063 and 0.06894
- Log2 reporter intensity values ([5]; LDN_25 μM): 0.04666 and -0.041 and -0.06395
- Log2 reporter intensity values: UCHL5 ([6]; LDN at 5 μM): 1.097 and 1.066 and 1.089
- Log2 reporter intensity values: UCHL5 ([6]; LDN at 25 μM): 0.9397 and 0.9601 and 0.908
- Log2 reporter intensity values ([6]; LDN at 5 μM): 0.134 and 0.09247 and 0.1227
- Log2 reporter intensity values ([6]; LDN at 25 μM): -0.08966 and -0.05875 and -0.1393
- Log2 reporter intensity values ([6]; LDN_5 μM): 0.09668 and 0.06552 and 0.08811
- Log2 reporter intensity values ([6]; LDN_25 μM): -0.06093 and -0.04058 and -0.09272
- Log2 reporter intensity values: PRPF8 ([7]; LDN at 5 μM): 0.8673 and 0.9446 and 0.9404
- Log2 reporter intensity values: PRPF8 ([7]; LDN at 25 μM): 0.9445 and 0.9891 and 0.9788
- Log2 reporter intensity values ([7]; LDN at 5 μM): -0.2054 and -0.08218 and -0.0886
- Log2 reporter intensity values ([7]; LDN at 25 μM): -0.08236 and -0.01582 and -0.0309
- Log2 reporter intensity values ([7]; LDN_5 μM): -0.1329 and -0.05561 and -0.05981
- Log2 reporter intensity values ([7]; LDN_25 μM): -0.05573 and -0.01115 and -0.02143
- Log2 reporter intensity values, COPS6 ([8]; 5 μM LDN-57444 (60 min) + 20 nM ABP 2 (10 min), All values): 0.1306 and 0.0287 and 0.0623
- Log2 reporter intensity values, COPS6 ([8]; 5 μM LDN-57444 (60 min) + 20 nM ABP 2 (10 min), DMSO subtracted): 0.1181 and 0.01629 and 0.04989
- Log2 reporter intensity values, COPS6 ([8]; 25 μM LDN-57444 (60 min) + 20 nM ABP 2 (10 min), All values): -0.04892 and -0.02797 and -0.1172
- Log2 reporter intensity values, COPS6 ([8]; 25 μM LDN-57444 (60 min) + 20 nM ABP 2 (10 min), DMSO subtracted): -0.06133 and -0.04038 and -0.1296
- Log2 t-test Difference ([8]; COPS6, LDN - 5 μM): 0.0178
- Log2 reporter intensity values ([8]; COPS6, LDN at 5 μM, DMSO subtracted): 0.1181 and 0.01629 and 0.04989
- Log2 reporter intensity values ([8]; COPS6, LDN at 25 μM, DMSO subtracted): -0.06133 and -0.04038 and -0.1296
- Log2 reporter intensity values ([8]; COPS6, LDN_5 μM, DMSO subtracted): 0.08523 and 0.01124 and 0.03507
- Log2 reporter intensity values ([8]; COPS6, LDN_25 μM, DMSO subtracted): -0.04173 and -0.02772 and -0.08603
- Log2 reporter intensity values: COPS6 ([8]; LDN at 5 μM): 1.085 and 1.011 and 1.035
- Log2 reporter intensity values: COPS6 ([8]; LDN at 25 μM): 0.9584 and 0.9724 and 0.9141
